Laboratory results: patent US8653071B2, “α4β2 neuronal nicotinic acetylcholine receptor ligands” (Suven Life Sciences Limited, priority 2009, dated 2014)

Tests used:
[1] = test system: Male Sprague Dawley rats; assay: Effect of test compounds on body weight gain in high fat fed rats; format: in vivo, rat; settings: oral for 14 days, high fat diet fed rats
Excerpt: Effect of Test Compounds on Body Weight Gain in High Fat Fed Rats
The body weight gain suppressing properties of compounds of this invention were studied using a animal model of obesity.
Male Sprague Dawley rats (150-160 grams) obtained from Reliance Life Sciences, India were used as experimental animals. Rats were fed with control diet (normal pellet diet) and lard based high fat diet (45% kcal diet) for 7-8 weeks. High fat diet fed animals was randomized according to their body weights. The animals were housed in a group of 3-4 per cage. One group of 10 rats received vehicle (2 mL/Kg) orally and another set of animals received compound of the formula (I) orally for 14 days. Body weight of the animals was recorded for first three consecutive days then it was recorded twice weekly. Weighed amount of food was given to the animals and food intake was recorded every 24 hour for the entire study period.

[2] = test system: Male Sprague Dawley rats; assay: DRL-72s model of animal depression; format: in vivo; settings: p.o.; rat
Method: The antidepressant properties of compounds of this invention were evaluated using a model of animal depression: the DRL-72s model. Male Sprague Dawley rats were used as experimental animals. Rats are trained to lever press for a 4″ access to 0.025 ml of water for each correct response during daily 60 minute sessions. All testing takes place on weekdays only. At the beginning of each session, the house light is illuminated and remains lit until the session ends. No other stimuli are presented during testing. After successful lever press training, rats are then required to respond under a DRL-24 second schedule, where only lever presses that are separated by 24 seconds are reinforced. Upon stable responding on a DRL-24 second schedule (5-10 sessions), rats are trained on a DRL-72 second schedule until responding stabilizes at approximately 15% efficiency (approx 25-35 sessions). Specifically, rats receive a reinforcer for each response that is emitted at least 72 seconds after the previous response (IRT). […] Efficiency is recorded as number of reinforced responses÷total number of responses. After stable baseline responding is achieved, defined as responding for 4 consecutive sessions with no more than 10% variability, animals begin drug testing. Animals receive drug no more than 1× per week.

CNCC1CC2CC2N1c1cccnc1.Cl (stereo not drawn) [Example 4, N-[2-(Pyridin-3-yl)-2-azabicyclo[3.1.0]hex-3-ylmethyl]methylamine hydrochloride] was tested, and the Inference [1] was “Active”, the “% Reduction in body weight gain compared to vehicle (Day 14)” value ([1]; Day 14) was 3.3% and the “Dose (DRL-72s)” value [2] was “≧10 mg/kg, p.o”.
